From patent US11059795B2, “Androgen receptor modulators and methods for their use” (ESSA Pharma, Inc., priority 2018, dated 2021) come the findings set out here.

Structures are written as SMILES.

Series [1] concerns the target LBD of estrogen receptor-β (ERβ) fused to DBD of GAL4 (Homo sapiens, UniProt Q92731). Nature of the series: LBD-expressing reporter assay (GeneBLAzer), ERβ LBD. In kind it is cell-based. Particulars: inhibition of maximal activity attained with agonist; read-out: Steroid Receptor LBD IC50 (μM) ERβ. The source says: (§1) To assess if the representative compounds (Compounds A13, A28, A38, A74, A93, and A109) compete with ligand (agonist) for the ligand-binding domain (LBD) of steroid hormone receptors (which would be off-target), the GeneBLAzer assay was employed (Thermo Fisher). This assay uses cells that stably express a chimera fusion protein comprising the LBD of a steroid hormone receptor fused to the DNA-binding domain (DBD) of GAL4 along with beta-lactamase reporter under transcriptional control of an upstream activator sequence (UAS). When agonist binds to the LBD of the GAL4 (DBD)-steroid hormone (LBD) chimera fusion protein, the protein binds to the UAS, resulting in expression of beta-lactamase. LBDs of androgen receptor (AR), progesterone receptor-beta (PRβ), glucocorticoid receptor (GR), estrogen receptor-α (ERα), and estrogen receptor-β (ERβ) were tested and IC50s calculated for inhibiting maximal activity attained with agonist.
On the technique in general: Reporter assays use an easily measured gene product as a stand-in for the process of interest.

Series [2] concerns the target T1, LBD of estrogen receptor-α (ERα) fused to DBD of GAL4 (Homo sapiens, UniProt P03372).
T1 sequence (P03372 311-547 limits assumed): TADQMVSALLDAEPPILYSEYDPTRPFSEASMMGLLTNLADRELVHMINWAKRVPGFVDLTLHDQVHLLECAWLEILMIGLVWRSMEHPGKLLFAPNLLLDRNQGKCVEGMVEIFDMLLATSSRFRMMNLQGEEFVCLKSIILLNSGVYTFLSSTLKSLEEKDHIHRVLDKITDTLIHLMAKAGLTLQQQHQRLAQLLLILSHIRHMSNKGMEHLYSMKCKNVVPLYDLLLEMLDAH
Nature of the series: LBD-expressing reporter assay (GeneBLAzer), ERα LBD. In kind it is cell-based. Particulars: inhibition of maximal activity attained with agonist; read-out: Steroid Receptor LBD IC50 (μM) ERα.
From the text: as §1, with “This” for “To assess if the representative compounds (Compounds A13, A28, A38, A74, A93, and A109) compete with ligand (agonist) for the ligand-binding domain (LBD) of steroid hormone receptors (which would be off-target), the GeneBLAzer assay was employed (Thermo Fisher). This”

Series [3] concerns the target T2, LBD of androgen receptor (AR) fused to DBD of GAL4 (Homo sapiens, UniProt P10275).
T2 sequence (P10275 669-900 limits assumed): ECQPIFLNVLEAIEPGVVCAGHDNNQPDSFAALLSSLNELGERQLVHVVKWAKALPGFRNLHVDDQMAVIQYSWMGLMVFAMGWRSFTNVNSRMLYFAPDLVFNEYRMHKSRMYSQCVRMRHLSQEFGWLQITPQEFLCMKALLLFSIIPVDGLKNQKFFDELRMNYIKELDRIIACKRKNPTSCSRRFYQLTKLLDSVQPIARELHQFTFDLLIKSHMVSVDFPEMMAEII
Nature of the series: LBD-expressing reporter assay (GeneBLAzer), AR LBD. In kind it is cell-based. Particulars: inhibition of maximal activity attained with agonist; read-out: Steroid Receptor LBD IC50 (μM) AR.
From the text: as §1, with “This” for “To assess if the representative compounds (Compounds A13, A28, A38, A74, A93, and A109) compete with ligand (agonist) for the ligand-binding domain (LBD) of steroid hormone receptors (which would be off-target), the GeneBLAzer assay was employed (Thermo Fisher). This”

Series [4] deals with T3, LBD of progesterone receptor-beta (PRβ) fused to DBD of GAL4 (Homo sapiens, UniProt P06401).
T3 sequence (P06401 679-913 limits assumed): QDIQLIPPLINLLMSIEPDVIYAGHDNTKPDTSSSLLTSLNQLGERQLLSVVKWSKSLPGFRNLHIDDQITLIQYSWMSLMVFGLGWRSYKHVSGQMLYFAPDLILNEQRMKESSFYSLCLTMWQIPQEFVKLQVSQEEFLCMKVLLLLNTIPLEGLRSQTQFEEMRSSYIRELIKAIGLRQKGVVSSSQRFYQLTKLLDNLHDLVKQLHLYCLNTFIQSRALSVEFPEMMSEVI
Nature of the series: LBD-expressing reporter assay (GeneBLAzer), PR LBD. In kind it is cell-based. As to conditions: inhibition of maximal activity attained with agonist; read-out: Steroid Receptor LBD IC50 (μM) PR.
From the text: as §1, with “This” for “To assess if the representative compounds (Compounds A13, A28, A38, A74, A93, and A109) compete with ligand (agonist) for the ligand-binding domain (LBD) of steroid hormone receptors (which would be off-target), the GeneBLAzer assay was employed (Thermo Fisher). This”

Series [5] is described as follows: In vivo pharmacokinetics in plasma after oral gavage (PO) in male CD-1 mice. As to conditions: for Cmin at 5 mg/kg PO: Table 4; for bioavailability / AUC(0-t) / Cmax / Tmax / half-life: mouse; for bioavailability / AUC(0-t) / Cmax / Tmax / half-life / AUC/D: plasma, single PO dose 5 mg/kg, male CD-1 mice; for bioavailability: oral availability; for half-life: read-out: t½ (converted).

Chain of LBD of estrogen receptor-β (ERβ) fused to DBD of GAL4 (Q92731 264-498 limits assumed): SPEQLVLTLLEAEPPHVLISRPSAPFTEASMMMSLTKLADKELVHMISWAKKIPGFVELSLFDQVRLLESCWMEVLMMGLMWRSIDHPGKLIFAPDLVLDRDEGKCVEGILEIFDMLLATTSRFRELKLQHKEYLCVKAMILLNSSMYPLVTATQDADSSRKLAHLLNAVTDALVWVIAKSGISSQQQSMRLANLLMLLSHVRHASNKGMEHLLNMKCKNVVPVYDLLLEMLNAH

Broadly, the IC50 is the concentration that gives 50% inhibition. A word on the bioavailability: it is the share of a dose that reaches the circulation, judged against a reference dose that is usually intravenous. Lower therefore signals little systemic uptake. For orientation: AUC(0-t) means the area under the concentration-time curve up to a stated or last time point. Low values mean low exposure, high ones high exposure. Broadly, the Cmax is the highest concentration seen after dosing. The term Tmax denotes the time from dosing to the highest level. `CC(C)(c1ccc(OCc2ccnc(NS(C)(=O)=O)n2)cc1)c1cc(Cl)c(OCCCl)c(C#N)c1` [Compound A109, N-(4-((4-(2-(3-chloro-4-(2-chloroethoxy)-5-cyanophenyl)propan-2-yl)phenoxy)methyl)pyrimidin-2-yl)methanesulfonamide]: in series [1], the IC50 was > 10 µM. Further, the 50% inhibitory concentration (IC50) in series [2] is > 10 µM. The IC50 in series [3] is > 10 µM. In addition, the concentration for half-maximal inhibition (IC50) in series [4] was found to be 5.61 µM. Besides, in series [5], the “Cmin at 5 mg/kg PO” value is 680 nM, the bioavailability is 33.6%, the AUC(0-t) came out at 30700 ng·h/mL and the Cmax is 2670 ng/mL. Besides, in series [5], the Tmax was 2.2 h, the half-life was 8.1 h and the “AUC/D” value is 6143.0 kg·ng·h/mL/mg.
`CC(C)(c1ccc(OCc2ocnc2S(C)(=O)=O)cc1)c1cc(Cl)c(OCCCl)c(Cl)c1` [Compound A13, 5-((4-(2-(3,5-dichloro-4-(2-chloroethoxy)phenyl)propan-2-yl)phenoxy)methyl)-4-(methylsulfonyl)oxazole]: the half-inhibitory concentration (IC50) in series [1] was > 10 µM. Besides, the 50% inhibitory concentration (IC50) in series [2] is > 10 µM. Besides, the IC50 in series [3] is > 10 µM. Further, the IC50 in series [4] worked out at 0.97 µM. Moreover, in series [5], the “Cmin at 5 mg/kg PO” value amounted to 230 nM, the bioavailability was 85.8%, the exposure AUC(0-t) was found to be 8310 ng·h/mL and the Cmax turned out to be 1140 ng/mL. In series [5], the Tmax came to 1 h, the half-life was 8.3 h and the “AUC/D” value worked out at 1661.9 kg·ng·h/mL/mg.
